Measured values: patent US5070089A, “Therapeutic agent for liver disease and piperazine derivatives” (Nippon Chemiphar Co., Ltd., priority 1988, dated 1991)
Read-outs that look alike come from different tables or passages of the source.

What was measured:
[1] = tested on: acute liver disease caused by CCl4 (Wister-strain rat); test: Preventive action on deviation of GOT value and GPT value in vivo using model of acute liver disease caused by CCl4; details: rat, 30 mg/kg, 3 hour before oral CCl4
Protocol: CCl4 in olive oil (concentration: 50%) was orally administered to a Wister-strain rat (body weight: 170-180 g) fasted for 24 hrs., at a dose of 1 ml/kg, to cause acute liver disease. […] For control group, 1.0% methylcellulose (MC) was administered in place of the piperazine derivative. For normal group, a simple olive oil was administered in place of the CCl4 -containing olive oil. For the administration, the piperazine derivative was employed in the form of a dispersion in aqueous MC solution (concentration: 1.0%). At 24 hours after the administration of CCl4, the rat was abdominally sectioned under ether anesthesia. From the abrominal large vein, a blood was collected. The collected blood was subjected to centrifugal separation at 3,000 r.p.m. for 10 min to obtain its plasma. […] The results are set forth in Table 4 in terms of a ratio (%) of suppression (prevention) of GOT or GPT. In Table 4, "***" means 90-100%, "**" means 60-90%, and "*" means 30-60%. The ratio of suppression is calculated according to the following equation. [formula]

[2] = tested on: lipid peroxidation in rat hepatocyte; test: Inhibitory action on lipid peroxidation (rat hepatocyte, TBA color formation, absorbance at 530 nm); assay type: biochemical; details: 37° C., 1 hour; for Inhibition ratio (at Final Concentration of Tested Compound) 10^-4 M: final concentration 10^-4 M, 100 µM; for Inhibition ratio (at Final Concentration of Tested Compound) 10^-5 M: final concentration 10^-5 M, 10 µM
Protocol: A hepatocyte was isolated from rat according to the method of Ui et al (Hiroshi Oka and Tadao Ui: "Isolated Cells--Experimental and Application",page 91). The determination of lipid peroxidation was performed using a died hepatocyte which had been frozen at -85° C. and stored at the temperature and which was melted when the experimental was done. […] The centrifugal tube was shaken at 37° C. for 1 hour for performing a reaction, and then placed into an ice-water bath to terminate the reaction. […] The centrifugal tube was taken out of the ice-water bath and placed in a water bath (kept at 95°-98° C.). The content of the tube was heated in the bath for 1 hour for developing color-formation. After the heating was complete, the content of the tube was cooled and subjected to centrifugal separation. The inhibitory action on lipid peroxidation of the sample was determined by measuring absorbance at 530 nm. The determined inhibitory action is expressed inhibition ratio by percent (%) calculated by the following equation: [formula] In Table 3, the number of the tested compound corresponds to the identical number set forth in Tables 1 and 2 for identifying the compounds of the invention.

[3] = plasma GOT at 24 hours after CCl4, read-out: ratio (%) of suppression (prevention) of GOT
[4] = plasma GPT at 24 hours after CCl4, read-out: ratio (%) of suppression (prevention) of GPT

Row | SMILES | inhibition in vivo at 30 mg/kg [1, 3] | inhibition in vivo at 30 mg/kg [1, 4] | Inhibition ratio (at Final Concentration of Tested Compound) 10^-4 M [2] | Inhibition ratio (at Final Concentration of Tested Compound) 10^-5 M [2] | Inhibition ratio (at Final Concentration of Tested Compound) 10^-4 M ([2]; 60 min)
1 | CSC(=S)N1CCN(CCc2ccc(O)c(O)c2O)CC1 [Compound 68, Methyl 4-{2-(2,3,4-trihydroxyphenyl)ethyl}-1-piperazinecarbodithioate] | 60 to 90% | 60 to 90% |  |  | 
2 | CSC(=S)N1CCN(Cc2cccc(O)c2O)CC1 [Compound 15, Methyl 4-(2,3-dihydroxybenzyl)-1-piperazinecarbodithioate] | 90 to 100% | 90 to 100% |  |  | 
3 | Oc1cc(CN2CCN(C(=S)S)CC2)cc(O)c1O [Compound 109, 4-(3,4,5-Trihydroxybenzyl)-1-piperazinecarbodithioic acid] |  |  | 74.9% | 24.2% | 
4 | COC1=C(OC)C(=O)C(CN2CCN(C(=S)SC)CC2)=C(C)C1=O [Compound 118, Methyl 4-(5,6-dimethoxy-3-methyl-1,4-benzoquinonylmethyl)-1-piperazinecarbodithioate] | 60 to 90% | 30 to 60% |  |  | 
5 | COc1ccc(CCN2CCN(C(=S)SC)CC2)c(OC)c1OC [Compound 67, Methyl 4-{2-(2,3,4-trimethoxyphenyl)ethyl}-1-piperazinecarbodithioate] | 30 to 60% | 30 to 60% |  |  | 
6 | CSC(=S)N1CCN(Cc2c(C)c(O)c(C)c(C)c2O)CC1 [Compound 46, Methyl 4-[(2,5-dihydroxy-3,4,6-trimethyl)benzyl]-1-piperazinecarbodithioate] | 90 to 100% | 90 to 100% |  |  | 
7 | CSC(=S)N1CCN(Cc2ccc(OC(C)=O)c(OC(C)=O)c2OC(C)=O)CC1 [Compound 34, Methyl 4-(2,3,4-triacetoxybenzyl)-1-piperazinecarbodithioate] |  | 30 to 60% |  |  | 
8 | CSC(=S)N1CCN(Cc2ccccc2N(C)C)CC1 [Compound 13, Methyl 4-(2-dimethylaminobenzyl)-1-piperazinecarbodithioate] | 30 to 60% | 30 to 60% | 98.9% | 95.4% | 
9 | COc1cccc(CN2CCN(C(=S)SC)CC2)c1 [Compound 6, Methyl 4-(3-methoxybenzyl)-1-piperazinecarbodithioate] | 90 to 100% | 90 to 100% |  |  | 
10 | CCCOC(=O)c1cc(O)c(O)c(O)c1CN1CCN(C(=S)SC)CC1 [Compound 44, Methyl 4-(6-propyloxycarbonyl-2,3,4-trihydroxybenzyl)-1-piperazinecarbodithioate] | 90 to 100% | 60 to 90% | 96.6% | 96.0% | 
11 | CSC(=S)N1CCN(Cc2ccccc2SC)CC1 [Compound 9, Methyl 4-(2-methylthiobenzyl)-1-piperazinecarbodithioate] | 60 to 90% | 60 to 90% |  |  | 
12 | COc1ccc(O)c(CN2CCN(C(=S)SC)CC2)c1 [Compound 20, Methyl 4-(2-hydroxy-5-methoxybenzyl)-1-piperazinecarbodithioate] | 60 to 90% | 60 to 90% |  |  | 
13 | CSC(=S)N1CCN(CC2=CC(=O)C=CC2=O)CC1 [Compound 110, Methyl 4-(1,4-benzoquinonylmethyl)-1-piperazinecarbodithioate] | 90 to 100% | 90 to 100% |  |  | 
14 | COc1ccc(CN2CCN(C(=S)SC)CC2)c(O)c1OC [Compound 35, Methyl 4-(3,4-dimethoxy-2-hydroxybenzyl)-1-piperazinecarbodithioate] | 60 to 90% | 60 to 90% |  |  | 
15 | COc1cccc(CN2CCN(C(=S)SC)CC2)c1O [Compound 18, Methyl 4-(2-hydroxy-3-methoxybenzyl)-1-piperazinecarbodithioate] | 60 to 90% | 60 to 90% |  |  | 
16 | Oc1ccc(CN2CCN(C(=S)SCc3ccccc3)CC2)c(O)c1O [Compound 100, Benzyl 4-(2,3,4-trihydroxybenzyl)-1-piperazinecarbodithioate] |  | 30 to 60% |  |  | 
17 | CSC(=S)N1CCN(Cc2cc(OC(C)=O)c(OC(C)=O)c(OC(C)=O)c2)CC1 [Compound 42, Methyl 4-(3,4,5-triacetoxybenzyl)-1-piperazinecarbodithioate] |  |  | 71.6% | 71.6% | 

Row | SMILES | inhibition in vivo at 30 mg/kg [1, 3] | inhibition in vivo at 30 mg/kg [1, 4] | Inhibition ratio (at Final Concentration of Tested Compound) 10^-4 M [2] | Inhibition ratio (at Final Concentration of Tested Compound) 10^-5 M [2] | Inhibition ratio (at Final Concentration of Tested Compound) 10^-4 M ([2]; 60 min)
18 | CSC(=S)N1CCN(CC(=O)c2ccc(O)c(O)c2)CC1 [Compound 72, Methyl 4-{2-(3,4-dihydroxyphenyl)-2-oxo}ethyl-1-piperazinecarbodithioate] |  |  | 74.8% | 58.2% | 
19 | COc1cc(CN2CCN(C(=S)S)CC2)cc(OC)c1OC [Compound 89, Sodium 4-(3,4-5-trimethoxybenzyl)-1-piperazinecarbodithioate] |  |  |  |  | 90.2%
20 | CSC(=S)N1CCN(Cc2ccccc2C)CC1 [Compound 3, Methyl 4-(2-methylbenzyl)-1-piperazinecarbodithioate] | 60 to 90% | 60 to 90% |  |  | 
21 | COc1ccc(CN2CCN(C(=S)S)CC2)c(OC)c1OC [Compound 93, 4-(2,3,4-Trimethoxybenzyl)-1-piperazinecarbodithioic acid] | 90 to 100% | 90 to 100% |  |  | 
22 | COc1ccc(CN2CCN(C(=S)SC)CC2)cc1 [Compound 7, Methyl 4-(4-methoxybenzyl)-1-piperazinecarbodithioate] | 60 to 90% | 30 to 60% |  |  | 
23 | COc1ccc(C(=O)N2CCN(C(=S)SC)CC2)c(OC)c1OC [Compound 56, Methyl 4-(2,3,4-trimethoxybenzoyl)-1-piperazinecarbodithioate] | 90 to 100% | 90 to 100% |  |  | 
24 | CSC(=S)N1CCN(Cc2ccccc2)CC1 [Compound 1] | 30 to 60% | 30 to 60% |  |  | 
25 | COc1ccc(C(=O)CN2CCN(C(=S)SC)CC2)c(OC)c1OC [Compound 71, Methyl 4-{2-(2,3,4-trimethoxyphenyl)-2-oxo}ethyl-1-piperazinecarbodithioate] | 60 to 90% | 30 to 60% |  |  | 
26 | CSC(=S)N1CCN(Cc2ccccc2Cl)CC1 [Compound 2, Methyl 4-(2-chlorobenzyl)-1-piperazinecarbodithioate] | 30 to 60% |  |  |  | 
27 | CSC(=S)N1CCN(Cc2ccccc2[N+](=O)[O-])CC1 [Compound 10, Methyl 4-(2-nitrobenzyl)-1-piperazinecarbodithioate] | 60 to 90% | 30 to 60% |  |  | 
28 | CSC(=S)N1CCN(Cc2cc(O)c(O)c(O)c2)CC1 [Compound 40, Methyl 4-(3,4,5-trihydroxybenzyl)-1-piperazinecarbodithioate] |  |  | 92.6% |  | 
29 | COc1cc(O)c(CN2CCN(C(=S)SC)CC2)c(OC)c1 [Compound 37, Methyl 4-[(4,6-dimethoxy-2-hydroxy)benzyl]-1-piperazinecarbodithioate] | 60 to 90% | 60 to 90% |  |  | 
30 | CSC(=S)N1CCN(Cc2c(O)c(O)cc3ccc(=O)oc23)CC1 [Compound 106, Methyl 4-(6,7-dihydroxycumarin-8-yl)methyl-1-piperazinecarbodithioate] |  |  | 89.0% | 88.1% | 
31 | COc1cc(CN2CCN(C(=S)S)CC2)cc(OC)c1OC [Compound 108, 4-(3,4,5-Trimethoxybenzyl)-1-piperazinecarbodithioic acid] |  |  |  | 39.2% | 72.6%
32 | COc1ccc(CN2CCN(C(=S)SC)CC2)cc1OC [Compound 31, Methyl 4-(3,4-dimethoxybenzyl)-1-piperazinecarbodithioate] | 60 to 90% | 30 to 60% |  |  | 
33 | CSC(=S)N1CCN(Cc2cc(OC(C)=O)ccc2O)CC1 [Compound 21, Methyl 4-(5-acetoxy-2-hydroxybenzyl)-1-piperazinecarbodithioate] | 60 to 90% | 60 to 90% |  |  | 
